Measurements as given in US20240279202A1 (NURIX THERAPEUTICS, INC., priority 2021, published 2024).
Where a name gives a salt, the structure may show the parent alone.

Key:
[1] = Mouse PK analysis (blood/plasma concentration after oral administration); format: in vivo; conditions: mice; for AUC(0-t) / Cmax / Tmax: mouse, plasma; for AUC(0-t) / Cmax / Tmax / detected in plasma through (FIG. 4B): oral; for detected in plasma through (FIG. 4B): plasma LC/MS/MS
Method in brief: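 Mice were dosed by oral gavage at 90 mg/kg with blood sampled at 1, 2 and 6 h; a second study used oral dosing with plasma taken at 6 or 24 h. Plasma levels were measured by LC/MS/MS (acetonitrile precipitation, internal-standard curve, positive ESI MRM), and Cmax, Tmax and AUClast were derived by noncompartmental analysis.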

ITK = target: T1, ITK (Homo sapiens, UniProt Q08881); assay: ITK degradation HiBiT assay; format: cell-based; design: expressed in transfected cells; host or cells: Molt4 (ATCC CRL-1552), monoclonal clone 1C10, engineered to carry the HiBiT tag; conditions: 4 hrs; for DC50: C-terminal HiBiT-tagged Molt4 cells; for Dmax: MOLT-4, C-terminal HiBiT-tagged Molt4 cells
T1 sequence (Q08881 1-620): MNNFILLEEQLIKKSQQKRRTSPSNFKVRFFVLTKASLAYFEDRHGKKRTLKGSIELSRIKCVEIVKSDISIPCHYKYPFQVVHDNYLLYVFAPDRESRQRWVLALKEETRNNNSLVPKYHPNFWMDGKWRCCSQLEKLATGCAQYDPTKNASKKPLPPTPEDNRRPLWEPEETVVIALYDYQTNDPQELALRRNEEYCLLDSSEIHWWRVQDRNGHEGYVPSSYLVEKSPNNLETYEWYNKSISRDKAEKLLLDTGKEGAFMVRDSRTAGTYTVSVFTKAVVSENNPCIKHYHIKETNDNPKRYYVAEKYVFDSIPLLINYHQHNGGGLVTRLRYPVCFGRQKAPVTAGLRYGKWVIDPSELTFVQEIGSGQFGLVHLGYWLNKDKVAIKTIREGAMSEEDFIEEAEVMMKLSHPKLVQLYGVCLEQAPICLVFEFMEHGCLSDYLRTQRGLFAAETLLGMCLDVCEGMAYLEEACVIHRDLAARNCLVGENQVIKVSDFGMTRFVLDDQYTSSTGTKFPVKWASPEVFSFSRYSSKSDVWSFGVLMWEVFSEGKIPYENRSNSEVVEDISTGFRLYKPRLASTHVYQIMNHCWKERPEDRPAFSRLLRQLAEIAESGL
Method in brief: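 C-terminal HiBiT-tagged Molt4 cells (clone 1C10) treated 4 h at 32° C with an 11-point, 5-fold compound dilution series (0.5% DMSO). HiBiT lytic detection with LgBiT then luminescence read; % ITK remaining versus concentration fit by four-parameter variable-slope model to give DC50 and Dmax.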

| Compound | AUC(0-t) [1] | Cmax [1] | Tmax [1] | DC50 (ITK) | Dmax (ITK) | detected in plasma through (FIG. 4B) [1] | Cal. Conc. Total (μM) 2 h ([1]; 2 h) | Cal. Conc. Total (μM) 6 h ([1]; 6 h) |
| --- | --- | --- | --- | --- | --- | --- | --- | --- |
| C[C@@H](C(=O)N(C)c1ccc2cc(-c3n[nH]c4c3CCC(C)(C)C4)[nH]c2c1)N1CCN(C[C@H]2CCN(c3ccc4c(c3)n(C)c(=O)n4C3CCC(=O)NC3=O)C2)CC1 (stereo partly drawn) [Compound 5, (2S)—N-(2-(6,6-dimethyl-4,5,6,7-tetrahydro-1H-indazol-3-yl)-1H-indol-6-yl)-2-(4-(((3R)-1-(1-(2,6-dioxopiperidin-3-yl)-3-methyl-2-oxo-2,3-dihydro-1H-benzo[d]imidazol-5-yl)pyrrolidin-3-yl)methyl)piperazin-1-yl)-N-methylpropanamide] | 0.7 µM·h | 188 nM | 4 h | 1.3 nM | 74% | – | – | – |
| C[C@@H](C(=O)N(C)c1ccc2cc(-c3n[nH]c4c3C[C@@H]3C(F)(F)[C@]3(C)C4)[nH]c2c1)N1CCN(C[C@H]2CCN(c3ccc4c(c3)C(=O)N(C3CCC(=O)NC3=O)C4=O)C2)CC1 (stereo partly drawn) [Compound 9, (2S)—N-(2-((4aS,5aR)-5,5-difluoro-5a-methyl-1,4,4a,5,5a,6-hexahydrocyclopropa[f]indazol-3-yl)-1H-indol-6-yl)-2-(4-(((3R)-1-(2-(2,6-dioxopiperidin-3-yl)-1,3-dioxoisoindolin-5-yl)pyrrolidin-3-yl)methyl)piperazin-1-yl)-N-methylpropanamide] | 0.154 µM·h | 46 nM | 6 h | 0.21 nM | 85% | – | – | – |
| C[C@@H](C(=O)N(C)c1ccc2cc(-c3n[nH]c4c3CCC(C)(C)C4)[nH]c2c1)N1CCN(C[C@H]2CCN(c3ccc4c(c3)CN(C3CCC(=O)NC3=O)C4=O)C2)CC1 (stereo partly drawn) [Compound 12, (2S)—N-(2-(6,6-dimethyl-4,5,6,7-tetrahydro-1H-indazol-3-yl)-1H-indol-6-yl)-2-(4-(((3R)-1-(2-(2,6-dioxopiperidin-3-yl)-1-oxoisoindolin-5-yl)pyrrolidin-3-yl)methyl)piperazin-1-yl)-N-methylpropanamide] | 0.198 µM·h | 80.3 nM | 1 h | 0.29 nM | 86% | – | – | – |
| Cn1c(=O)n(C2CCC(=O)NC2=O)c2cccc(N3CCC(CN4CCC5(CC4)CCN(c4ccc6cc(-c7n[nH]c8c7CCC(C)(C)C8)[nH]c6c4)C5=O)CC3)c21 (stereo not drawn) [Compound 13, 3-(4-(4-((2-(2-(6,6-dimethyl-4,5,6,7-tetrahydro-1H-indazol-3-yl)-1H-indol-6-yl)-1-oxo-2,8-diazaspiro[4.5]decan-8-yl)methyl)piperidin-1-yl)-3-methyl-2-oxo-2,3-dihydro-1H-benzo[d]imidazol-1-yl)piperidine-2,6-dione] | 0.927 µM·h | 251 nM | 4 h | 2.4 nM | 90% | – | – | – |
| C[C@@]12Cc3[nH]nc(-c4cc5ccc(N6CCC7(CCN(Cc8ccc9c(c8)C(=O)N(C8CCC(=O)NC8=O)C9=O)CC7)C6=O)cc5[nH]4)c3C[C@@H]1C2(F)F (stereo partly drawn) [Compound 15, 5-((2-(2-((4aS,5aR)-5,5-difluoro-5a-methyl-1,4,4a,5,5a,6-hexahydrocyclopropa[f]indazol-3-yl)-1H-indol-6-yl)-1-oxo-2,8-diazaspiro[4.5]decan-8-yl)methyl)-2-(2,6-dioxopiperidin-3-yl)isoindoline-1,3-dione hydrochloride] | 3.14 µM·h | 743 nM | 4 h | 0.35 nM | 93% | – | – | – |
| Cn1c(=O)n(C2CCC(=O)NC2=O)c2cccc(N3CCC(CN4CCC5(CC4)CCN(c4ccc6cc(-c7n[nH]c8c7C[C@@H]7C(F)(F)[C@]7(C)C8)[nH]c6c4)C5=O)CC3)c21 (stereo partly drawn) [Compound 16, 3-(4-(4-((2-(2-((4aS,5aR)-5,5-difluoro-5a-methyl-1,4,4a,5,5a,6-hexahydrocyclopropa[f]indazol-3-yl)-1H-indol-6-yl)-1-oxo-2,8-diazaspiro[4.5]decan-8-yl)methyl)piperidin-1-yl)-3-methyl-2-oxo-2,3-dihydro-1H-benzo[d]imidazol-1-yl)piperidine-2,6-dione] | 1.53 µM·h | 585 nM | 6 h | 0.23 nM | 90% | 6 h | – | – |
| C[C@@H](C(=O)N(C)c1ccc2cc(-c3n[nH]c4c3C[C@@H]3C(F)(F)[C@]3(C)C4)[nH]c2c1)N1CCN(CC2CCN(c3ccc(C4CCC(=O)NC4=O)cn3)CC2)CC1 (stereo partly drawn) [Compound 17, (2S)—N-(2-((4aS,5aR)-5,5-difluoro-5a-methyl-1,4,4a,5,5a,6-hexahydrocyclopropa[f]indazol-3-yl)-1H-indol-6-yl)-2-(4-((1-(5-(2,6-dioxopiperidin-3-yl)pyridin-2-yl)piperidin-4-yl)methyl)piperazin-1-yl)-N-methylpropanamide] | – | – | – | < 0.001 nM | – | 24 h | – | – |

The next lines start with the values.

| AUC(0-t) [1] | Cmax [1] | Tmax [1] | DC50 (ITK) | Dmax (ITK) | detected in plasma through (FIG. 4B) [1] | Cal. Conc. Total (μM) 2 h ([1]; 2 h) | Cal. Conc. Total (μM) 6 h ([1]; 6 h) | Compound |
| --- | --- | --- | --- | --- | --- | --- | --- | --- |
| 7.07 µM·h | 2430 nM | 1 h | 0.01 nM | 82% | – | – | – | CC1(C)CCc2c(-c3cc4ccc(N5CCC6(CCN(CC7CCN(c8ccc(C9CCC(=O)NC9=O)cn8)CC7)CC6)C5=O)cc4[nH]3)n[nH]c2C1 (stereo not drawn) [Compound 22, 3-(6-(4-((2-(2-(6,6-dimethyl-4,5,6,7-tetrahydro-1H-indazol-3-yl)-1H-indol-6-yl)-1-oxo-2,8-diazaspiro[4.5]decan-8-yl)methyl)piperidin-1-yl)pyridin-3-yl)piperidine-2,6-dione] |
| – | – | – | 1.8 nM | 89% | – | BQL | BQL | C[C@@H](C(=O)N(C)c1ccc2cc(-c3n[nH]c4c3CCC(C)(C)C4)[nH]c2c1)N1CCN(C(=O)C2CN(C3CCN(c4ccc5c(c4)C(=O)N(C4CCC(=O)NC4=O)C5=O)CC3)C2)CC1 (stereo partly drawn) [Compound 34, (2S)—N-(2-(6,6-dimethyl-4,5,6,7-tetrahydro-1H-indazol-3-yl)-1H-indol-6-yl)-2-(4-(1-(1-(2-(2,6-dioxopiperidin-3-yl)-1,3-dioxoisoindolin-5-yl)piperidin-4-yl)azetidine-3-carbonyl)piperazin-1-yl)-N-methylpropanamide] |
| 2.34 µM·h | 720 nM | 6 h | 2.9 nM | 93% | – | – | – | C[C@@]12Cc3[nH]nc(C(=O)Nc4cnn(CC5CN(C(=O)C6CN(c7ccc8c(c7)C(=O)N(C7CCC(=O)NC7=O)C8=O)C6)C5)c4)c3C[C@@H]1C2(F)F (stereo partly drawn) [Compound 43, (4aS,5aR)-N-(1-((1-(1-(2-(2,6-dioxopiperidin-3-yl)-1,3-dioxoisoindolin-5-yl)azetidine-3-carbonyl)azetidin-3-yl)methyl)-1H-pyrazol-4-yl)-5,5-difluoro-5a-methyl-1,4,4a,5,5a,6-hexahydrocyclopropa[f]indazole-3-carboxamide] |
| – | 27 nM | 2 h | 2.4 nM | 88% | – | – | – | C[C@@]12Cc3[nH]nc(C(=O)Nc4cnn(CC5CN(C[C@H]6CCN(c7ccc8c(c7)C(=O)N(C7CCC(=O)NC7=O)C8=O)C6)C5)c4)c3C[C@@H]1C2(F)F (stereo partly drawn) [Compound 44, (4aS,5aR)-N-(1-((1-(((3R)-1-(2-(2,6-dioxopiperidin-3-yl)-1,3-dioxoisoindolin-5-yl)pyrrolidin-3-yl)methyl)azetidin-3-yl)methyl)-1H-pyrazol-4-yl)-5,5-difluoro-5a-methyl-1,4,4a,5,5a,6-hexahydrocyclopropa[f]indazole-3-carboxamide] |
